{"source": "PubChem BioAssay AID1963445", "about": "(Molecular Pharmacology Branch, DTP, NCI, 2024)", "tested_on": "MCF7 complex spheroid growth, % test/control", "assay": "Anticancer human tumor MCF7 cell line growth inhibition [Asc];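 as to all read-outs here: spheroids exposed to compounds for 7 days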;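 as to viability, T/C: 100% = DMSO vehicle control wells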", "details": "for IC50: curve of first compound; for viability, T/C: stronger effect = lower value", "how_it_was_run": "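Spheroid model: tumor line + HUVEC + hMSC. Single agents and combinations; top conc. at/near clinical Cmax (10 microM if undetermined), half-log dilutions. DMSO stocks at 800-fold test concentration.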"}
{"smiles": "Cn1ncnc1[C@H]1c2n[nH]c(=O)c3cc(F)cc(c23)N[C@@H]1c1ccc(F)cc1", "note": "+ CCN1C(C(=O)NC23CCC(C(=O)O)(CC2)CC3)C(c2cccc(Cl)c2F)C2(C(=O)Nc3cc(Cl)ccc32)C12CCCCC2", "values": [{"measurement": "IC50", "setting": "second compound 0.00949 µM", "value": "> 100", "unit": "nM"}, {"measurement": "IC50", "setting": "second compound 0.03 µM", "value": "> 100", "unit": "nM"}, {"measurement": "IC50", "setting": "second compound 0.0949 µM", "value": 1.99, "unit": "nM"}, {"measurement": "IC50", "setting": "second compound 0.3 µM", "value": "< 0.316", "unit": "nM"}, {"measurement": "IC50", "setting": "second compound 0.949 µM", "value": "< 0.316", "unit": "nM"}, {"measurement": "IC50", "setting": "second compound 3 µM", "value": "< 0.316", "unit": "nM"}, {"measurement": "viability, T/C", "setting": "second compound 0.00949 µM, first compound 0.000316 µM", "value": 121, "unit": "%"}, {"measurement": "viability, T/C", "setting": "second compound 0.00949 µM, first compound 0.001 µM", "value": 98.8, "unit": "%"}, {"measurement": "viability, T/C", "setting": "second compound 0.00949 µM, first compound 0.00316 µM", "value": 116, "unit": "%"}, {"measurement": "viability, T/C", "setting": "second compound 0.00949 µM, first compound 0.01 µM", "value": 73.1, "unit": "%"}, {"measurement": "viability, T/C", "setting": "second compound 0.00949 µM, first compound 0.0316 µM", "value": 92.4, "unit": "%"}, {"measurement": "viability, T/C", "setting": "second compound 0.00949 µM, first compound 0.1 µM", "value": 67, "unit": "%"}, {"measurement": "viability, T/C", "setting": "second compound 0.03 µM, first compound 0.000316 µM", "value": 67.4, "unit": "%"}, {"measurement": "viability, T/C", "setting": "second compound 0.03 µM, first compound 0.001 µM", "value": 96.7, "unit": "%"}, {"measurement": "viability, T/C", "setting": "second compound 0.03 µM, first compound 0.00316 µM", "value": 75.8, "unit": "%"}, {"measurement": "viability, T/C", "setting": "second compound 0.03 µM, first compound 0.01 µM", "value": 77.6, "unit": "%"}, {"measurement": "viability, T/C", "setting": "second compound 0.03 µM, first compound 0.0316 µM", "value": 55.1, "unit": "%"}, {"measurement": "viability, T/C", "setting": "second compound 0.03 µM, first compound 0.1 µM", "value": 51, "unit": "%"}, {"measurement": "viability, T/C", "setting": "second compound 0.0949 µM, first compound 0.000316 µM", "value": 51.9, "unit": "%"}, {"measurement": "viability, T/C", "setting": "second compound 0.0949 µM, first compound 0.001 µM", "value": 56.7, "unit": "%"}, {"measurement": "viability, T/C", "setting": "second compound 0.0949 µM, first compound 0.00316 µM", "value": 52.3, "unit": "%"}, {"measurement": "viability, T/C", "setting": "second compound 0.0949 µM, first compound 0.01 µM", "value": 38.8, "unit": "%"}, {"measurement": "viability, T/C", "setting": "second compound 0.0949 µM, first compound 0.0316 µM", "value": 37.7, "unit": "%"}, {"measurement": "viability, T/C", "setting": "second compound 0.0949 µM, first compound 0.1 µM", "value": 37, "unit": "%"}, {"measurement": "viability, T/C", "setting": "second compound 0.3 µM, first compound 0.000316 µM", "value": 35.9, "unit": "%"}, {"measurement": "viability, T/C", "setting": "second compound 0.3 µM, first compound 0.001 µM", "value": 29.8, "unit": "%"}, {"measurement": "viability, T/C", "setting": "second compound 0.3 µM, first compound 0.00316 µM", "value": 29.7, "unit": "%"}, {"measurement": "viability, T/C", "setting": "second compound 0.3 µM, first compound 0.01 µM", "value": 32.9, "unit": "%"}, {"measurement": "viability, T/C", "setting": "second compound 0.3 µM, first compound 0.0316 µM", "value": 26.1, "unit": "%"}, {"measurement": "viability, T/C", "setting": "second compound 0.3 µM, first compound 0.1 µM", "value": 29.1, "unit": "%"}, {"measurement": "viability, T/C", "setting": "second compound 0.949 µM, first compound 0.000316 µM", "value": 21.5, "unit": "%"}, {"measurement": "viability, T/C", "setting": "second compound 0.949 µM, first compound 0.001 µM", "value": 23.1, "unit": "%"}, {"measurement": "viability, T/C", "setting": "second compound 0.949 µM, first compound 0.00316 µM", "value": 16.4, "unit": "%"}, {"measurement": "viability, T/C", "setting": "second compound 0.949 µM, first compound 0.01 µM", "value": 15.9, "unit": "%"}, {"measurement": "viability, T/C", "setting": "second compound 0.949 µM, first compound 0.0316 µM", "value": 20.8, "unit": "%"}, {"measurement": "viability, T/C", "setting": "second compound 0.949 µM, first compound 0.1 µM", "value": 18.4, "unit": "%"}, {"measurement": "viability, T/C", "setting": "second compound 3 µM, first compound 0.000316 µM", "value": 15.6, "unit": "%"}, {"measurement": "viability, T/C", "setting": "second compound 3 µM, first compound 0.001 µM", "value": 17.2, "unit": "%"}, {"measurement": "viability, T/C", "setting": "second compound 3 µM, first compound 0.00316 µM", "value": 15.5, "unit": "%"}, {"measurement": "viability, T/C", "setting": "second compound 3 µM, first compound 0.01 µM", "value": 13.1, "unit": "%"}, {"measurement": "viability, T/C", "setting": "second compound 3 µM, first compound 0.0316 µM", "value": 13.9, "unit": "%"}, {"measurement": "viability, T/C", "setting": "second compound 3 µM, first compound 0.1 µM", "value": 14.6, "unit": "%"}]}
